Common to all, as to assay type: biochemical
One assay deals with T1, recombinant human DPP7 (Homo sapiens, UniProt Q9UHL4).
T1 construct: purchased R&D Systems
Kind of assay: DPP7 inhibition, fluorogenic substrate Lys-Pro-AMC. An outline of the steps:
(§1)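 Enzyme per reaction: 50 ng DPP9, 20 ng DPP8, 10 ng each DPP7 and PREP. Compounds were serially diluted (8 points, up to 0.5% DMSO) and incubated at 25 °C.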

Another assay addresses T2, Recombinant human FAP (Homo sapiens, UniProt Q12884).
T2 construct: purchased R&D systems
T2 sequence (Q12884 1-760): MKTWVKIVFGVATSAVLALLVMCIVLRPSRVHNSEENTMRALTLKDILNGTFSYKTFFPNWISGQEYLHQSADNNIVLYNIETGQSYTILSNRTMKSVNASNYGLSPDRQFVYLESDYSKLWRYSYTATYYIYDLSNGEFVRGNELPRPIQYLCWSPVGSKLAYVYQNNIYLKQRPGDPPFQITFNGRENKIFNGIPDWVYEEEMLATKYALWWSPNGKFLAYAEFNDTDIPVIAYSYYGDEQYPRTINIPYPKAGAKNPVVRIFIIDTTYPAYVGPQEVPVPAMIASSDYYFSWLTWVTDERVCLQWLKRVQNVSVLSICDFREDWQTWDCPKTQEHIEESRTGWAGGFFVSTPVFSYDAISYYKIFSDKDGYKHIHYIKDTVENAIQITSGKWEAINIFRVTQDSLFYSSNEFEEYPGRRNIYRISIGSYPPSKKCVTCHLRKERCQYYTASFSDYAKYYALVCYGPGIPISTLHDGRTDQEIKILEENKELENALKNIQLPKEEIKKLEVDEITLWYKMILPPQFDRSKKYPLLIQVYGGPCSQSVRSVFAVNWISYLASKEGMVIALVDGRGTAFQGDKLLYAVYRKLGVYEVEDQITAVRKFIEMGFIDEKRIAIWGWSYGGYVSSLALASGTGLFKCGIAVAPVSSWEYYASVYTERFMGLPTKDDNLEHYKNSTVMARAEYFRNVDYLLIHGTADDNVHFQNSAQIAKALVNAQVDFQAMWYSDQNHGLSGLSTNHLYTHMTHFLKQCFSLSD
Put plainly: FAP inhibition, fluorogenic substrate Z-Gly-Pro-AMC. An outline of the steps: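 Recombinant human FAP, 10 ng per reaction, in 50 mM Tris pH 7.5 with 1 M NaCl and 1 mg/ml BSA at 25° C; substrate Z-Gly-Pro-AMC, ≤0.1% DMSO. AMC fluorescence read at ex 380/em 460 nm; % signal-rate decrease vs no-inhibitor control, 8-point curves fitted to a four-parameter logistic for IC50.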

The target in the next assay is T3, recombinant human DPP9 (Homo sapiens, UniProt Q86TI2).
T3 construct: purchased R&D Systems
T3 sequence (Q86TI2 whole entry): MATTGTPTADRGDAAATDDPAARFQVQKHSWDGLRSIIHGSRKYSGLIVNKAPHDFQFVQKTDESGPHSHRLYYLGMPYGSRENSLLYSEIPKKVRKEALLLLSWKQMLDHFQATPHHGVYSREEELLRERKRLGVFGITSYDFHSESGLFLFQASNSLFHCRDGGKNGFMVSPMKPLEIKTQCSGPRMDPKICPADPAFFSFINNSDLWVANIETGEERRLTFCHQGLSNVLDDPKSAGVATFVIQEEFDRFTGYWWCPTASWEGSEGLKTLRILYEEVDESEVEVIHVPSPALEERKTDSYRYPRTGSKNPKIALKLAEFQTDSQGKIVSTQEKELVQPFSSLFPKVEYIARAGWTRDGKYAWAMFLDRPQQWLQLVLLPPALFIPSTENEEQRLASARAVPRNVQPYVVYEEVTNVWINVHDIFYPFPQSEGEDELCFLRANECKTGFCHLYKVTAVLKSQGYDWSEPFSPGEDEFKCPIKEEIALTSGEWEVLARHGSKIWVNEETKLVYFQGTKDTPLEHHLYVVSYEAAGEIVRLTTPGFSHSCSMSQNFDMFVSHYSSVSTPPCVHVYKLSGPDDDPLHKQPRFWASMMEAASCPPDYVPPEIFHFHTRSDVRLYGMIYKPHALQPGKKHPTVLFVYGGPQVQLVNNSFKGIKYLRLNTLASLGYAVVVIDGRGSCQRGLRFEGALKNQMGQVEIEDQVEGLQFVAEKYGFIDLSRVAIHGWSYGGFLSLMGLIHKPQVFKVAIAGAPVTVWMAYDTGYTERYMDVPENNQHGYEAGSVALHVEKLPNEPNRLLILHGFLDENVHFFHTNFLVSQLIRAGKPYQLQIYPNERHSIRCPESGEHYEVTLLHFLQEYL
Put plainly: DPP9 inhibition, fluorogenic substrate H-Gly-Pro-AMC. An outline of the steps:
as §1

Another assay deals with T4, recombinant human DPP8 (Homo sapiens, UniProt Q6V1X1).
T4 construct: purchased PBS Bioscience
T4 sequence (Q6V1X1 whole entry): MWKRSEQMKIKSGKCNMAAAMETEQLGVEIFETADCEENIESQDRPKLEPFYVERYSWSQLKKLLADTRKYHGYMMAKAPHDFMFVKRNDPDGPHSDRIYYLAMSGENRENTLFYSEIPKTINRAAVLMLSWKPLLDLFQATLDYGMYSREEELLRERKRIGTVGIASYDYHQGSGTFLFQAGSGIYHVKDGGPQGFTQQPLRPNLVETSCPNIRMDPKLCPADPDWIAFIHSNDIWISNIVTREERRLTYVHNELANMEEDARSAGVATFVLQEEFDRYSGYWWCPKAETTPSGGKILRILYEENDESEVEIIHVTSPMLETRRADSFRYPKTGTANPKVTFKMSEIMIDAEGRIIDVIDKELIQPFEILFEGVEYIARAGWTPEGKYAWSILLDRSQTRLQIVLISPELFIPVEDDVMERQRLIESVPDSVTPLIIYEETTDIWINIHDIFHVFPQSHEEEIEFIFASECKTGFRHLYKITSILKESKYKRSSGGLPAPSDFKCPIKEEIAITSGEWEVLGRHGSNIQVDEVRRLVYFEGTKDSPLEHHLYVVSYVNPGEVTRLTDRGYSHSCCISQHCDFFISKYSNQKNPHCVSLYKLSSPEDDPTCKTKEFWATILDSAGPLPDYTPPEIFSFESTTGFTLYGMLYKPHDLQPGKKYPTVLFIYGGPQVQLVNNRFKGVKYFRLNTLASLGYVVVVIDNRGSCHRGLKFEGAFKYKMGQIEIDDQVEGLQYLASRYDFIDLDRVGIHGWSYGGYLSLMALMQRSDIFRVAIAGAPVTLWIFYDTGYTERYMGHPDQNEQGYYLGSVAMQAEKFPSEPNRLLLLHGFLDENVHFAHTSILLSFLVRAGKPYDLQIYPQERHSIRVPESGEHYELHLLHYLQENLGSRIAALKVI
Put plainly: DPP8 inhibition, fluorogenic substrate Z-Ala-Pro-AMC. An outline of the steps:
as §1

The target in the next assay is T5, recombinant human PREP (Homo sapiens, UniProt P48147).
T5 construct: purchased R&D System
T5 sequence (P48147 1-710): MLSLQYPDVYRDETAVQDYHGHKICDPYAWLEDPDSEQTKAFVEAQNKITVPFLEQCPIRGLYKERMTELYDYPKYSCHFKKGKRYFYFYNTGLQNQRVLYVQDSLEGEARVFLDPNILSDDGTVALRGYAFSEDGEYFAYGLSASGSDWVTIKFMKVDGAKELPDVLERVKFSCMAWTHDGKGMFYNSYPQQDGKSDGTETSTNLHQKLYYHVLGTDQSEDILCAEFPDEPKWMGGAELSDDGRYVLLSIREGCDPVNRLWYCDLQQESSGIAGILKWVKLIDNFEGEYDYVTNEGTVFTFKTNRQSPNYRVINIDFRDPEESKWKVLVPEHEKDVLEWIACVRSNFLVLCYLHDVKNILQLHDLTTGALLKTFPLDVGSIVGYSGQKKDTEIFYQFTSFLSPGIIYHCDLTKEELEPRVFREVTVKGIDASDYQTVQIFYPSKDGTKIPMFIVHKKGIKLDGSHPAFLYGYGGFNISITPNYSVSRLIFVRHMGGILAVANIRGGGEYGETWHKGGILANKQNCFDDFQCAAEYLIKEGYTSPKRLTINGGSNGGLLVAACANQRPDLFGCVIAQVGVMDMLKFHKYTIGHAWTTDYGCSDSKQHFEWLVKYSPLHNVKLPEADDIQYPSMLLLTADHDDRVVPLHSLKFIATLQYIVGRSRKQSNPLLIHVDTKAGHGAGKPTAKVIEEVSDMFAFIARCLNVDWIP
Put plainly: PREP inhibition, fluorogenic substrate Z-Gly-Pro-AMC. The settings on record: Inhibitory Activity (IC50, nM) PREP. An outline of the steps: as §1

The target of a further assay is DPP4 (Homo sapiens, UniProt P27487). Put plainly: DPP4 inhibition, fluorogenic substrate H-Gly-Pro-AMC. Further details: purchased R&D Systems.
Chain of DPP4 (P27487 whole entry): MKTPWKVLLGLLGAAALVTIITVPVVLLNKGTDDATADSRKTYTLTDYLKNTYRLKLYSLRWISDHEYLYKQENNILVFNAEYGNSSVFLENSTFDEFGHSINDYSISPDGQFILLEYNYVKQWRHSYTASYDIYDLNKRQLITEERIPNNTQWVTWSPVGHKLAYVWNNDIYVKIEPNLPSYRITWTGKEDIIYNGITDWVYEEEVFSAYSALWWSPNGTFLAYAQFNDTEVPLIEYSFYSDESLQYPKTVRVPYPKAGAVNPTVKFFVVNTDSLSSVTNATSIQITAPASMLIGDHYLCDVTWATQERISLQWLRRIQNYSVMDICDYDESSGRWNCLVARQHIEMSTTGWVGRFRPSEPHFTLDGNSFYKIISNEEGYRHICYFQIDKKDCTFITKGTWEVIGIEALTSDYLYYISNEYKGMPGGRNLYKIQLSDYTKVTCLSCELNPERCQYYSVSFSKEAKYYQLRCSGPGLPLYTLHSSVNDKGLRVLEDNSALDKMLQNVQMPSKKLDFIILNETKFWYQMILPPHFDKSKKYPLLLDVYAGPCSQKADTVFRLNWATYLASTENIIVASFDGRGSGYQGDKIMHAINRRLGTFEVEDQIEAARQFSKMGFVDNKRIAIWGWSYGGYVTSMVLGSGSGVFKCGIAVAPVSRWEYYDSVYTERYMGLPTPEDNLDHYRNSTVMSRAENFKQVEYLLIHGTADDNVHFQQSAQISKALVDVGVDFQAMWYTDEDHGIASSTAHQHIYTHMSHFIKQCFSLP
[1] abbreviates: 25° C., Z-Gly-Pro-AMC substrate.
[2] abbreviates: 25° C., H-Gly-Pro-AMC substrate.
Setting [3] is: 25° C., Z-Ala-Pro-AMC substrate.
The mark [4] stands for this setting: recombinant human FAP, substrate Z-Gly-Pro-AMC.

Like-named read-outs stand apart in the source and are kept apart here.

For orientation: IC50 means the concentration needed to halve the response being measured. On to `N#C[C@@H]1CCCN1C(=O)CN1CC[C@H](NC(=O)c2cc3ccccc3s2)C1` [Example 36, N—((S)-1-(2-((S)-2-cyanopyrrolidin-1-yl)-2-oxoethyl)pyrrolidin-3-yl)benzo[b]thiophene-2-carboxamide], for which the IC50 was 3.55 µM at recombinant human DPP7; 0.0327 µM at Recombinant human FAP (setting [1]); > 100 µM on recombinant human DPP9 (setting [2]); 21.8 µM at recombinant human DPP8 (setting [3]); 6450 nM at recombinant human PREP (setting [1]); > 1 µM at DPP4 (setting [2]).

As for `N#C[C@@H]1C[C@H](F)CN1C(=O)CN1CC[C@H](NC(=O)c2coc3cc(F)ccc23)C1` [Example 29, N—((S)-1-(2-((2S,4S)-2-cyano-4-fluoropyrrolidin-1-yl)-2-oxoethyl)pyrrolidin-3-yl)-6-fluorobenzofuran-3-carboxamide], the IC50 is 0.728 µM at recombinant human DPP7; 0.00622 µM at Recombinant human FAP (setting [1]); 17.5 µM at recombinant human DPP9 (setting [2]); 28.7 µM on recombinant human DPP8 (setting [3]); 6170 nM on recombinant human PREP (setting [1]); > 100 µM against DPP4 (setting [2]).

Broadly, the inhibition is the share of the control response that was lost under treatment. Take `N#C[C@@H]1CCCN1C(=O)CN1CC[C@H](Nc2cccc3ncccc23)C1` [Example 27, (S)-1-(2-((S)-3-(quinolin-5-ylamino)pyrrolidin-1-yl)acetyl)pyrrolidine-2-carbonitrile]: the half-maximal inhibitory concentration (IC50) on recombinant human DPP7 worked out at 1.22 µM; on Recombinant human FAP (setting [1]), 0.00162 µM; on recombinant human DPP9 (setting [2]) it was 27.4 µM; on recombinant human DPP8 (setting [3]) it was 20.7 µM; at recombinant human PREP (setting [1]) it was 12100 nM. Besides, the inhibition at 1 µM at DPP4 (read-out: hDPP4 inhibition % at 1 μM) turned out to be 5.4%.

In the case of `N#C[C@@H]1CCCN1C(=O)CN1CCC(NC(=O)c2cccc3cccnc23)CC1` [Example 301, N-[1-[2-oxo-2-[(2S)-2-cyanopyrrolidin-1-yl]ethyl]-4-piperidyl]quinoline-8-carboxamide], the concentration for half-maximal inhibition (IC50) at recombinant human DPP7 (recombinant human DPP7) was 1.56 µM; at Recombinant human FAP (setting [4]) it was 0.0695 µM; at recombinant human DPP9 (recombinant human DPP9) it was > 100 µM; at recombinant human DPP8 (recombinant human DPP8), > 100 µM; at recombinant human PREP (recombinant human PREP) it was 36000 nM; on DPP4 (recombinant human DPP4) it was 8.13 µM.

Take `CN(c1ccc2ccncc2c1)C1CCN(CC(=O)N2C[C@@H](F)C[C@H]2C#N)CC1` [Example 319, (2S,4S)-4-fluoro-1-[2-[4-[7-isoquinolyl(methyl)amino]-1-piperidyl]acetyl]pyrrolidine-2-carbonitrile]: the IC50 on recombinant human DPP7 (recombinant human DPP7) was 1.32 µM; at Recombinant human FAP (setting [4]), 0.0018 µM; at recombinant human DPP9 (recombinant human DPP9), 5.04 µM; at recombinant human DPP8 (recombinant human DPP8), 3.82 µM; on recombinant human PREP (recombinant human PREP), 503 nM; on DPP4 (recombinant human DPP4) it was > 10 µM.

On to `N#C[C@@H]1C[C@H](F)CN1C(=O)CN1CCC(Nc2ccc(F)c3cnccc23)CC1` [Example 357, (2S,4S)-4-fluoro-1-[2-[4-[(8-fluoro-5-isoquinolyl)amino]-1-piperidyl]acetyl]pyrrolidine-2-carbonitrile], for which the IC50 was determined as 1.64 µM on recombinant human DPP7 (recombinant human DPP7); 0.0038 µM at Recombinant human FAP (setting [4]); 2.8 µM at recombinant human DPP9 (recombinant human DPP9); 3.6 µM at recombinant human DPP8 (recombinant human DPP8); 4830 nM on recombinant human PREP (recombinant human PREP); 4.71 µM at DPP4 (recombinant human DPP4).

Regarding `N#C[C@@H]1C[C@H](F)CN1C(=O)CN1CCC(Nc2cccc3ccncc23)CC1` [Example 342, (2S,4S)-4-fluoro-1-[2-[4-(8-isoquinolylamino)-1-piperidyl]acetyl]pyrrolidine-2-carbonitrile], the 50% inhibitory concentration (IC50) on recombinant human DPP7 (recombinant human DPP7) stood at 0.316 µM; on Recombinant human FAP (setting [4]), 0.014 µM; at recombinant human DPP9 (recombinant human DPP9) it was 5.33 µM; on recombinant human DPP8 (recombinant human DPP8), 39.6 µM; at recombinant human PREP (recombinant human PREP), 6650 nM; at DPP4 (recombinant human DPP4) it was 3.26 µM.

In the case of `N#C[C@@H]1CCCN1C(=O)CN1CC[C@H](NC(=O)c2coc3ccccc23)C1` [Example 37, N—((S)-1-(2-((S)-2-cyanopyrrolidin-1-yl)-2-oxoethyl)pyrrolidin-3-yl)benzofuran-3-carboxamide], the IC50 on recombinant human DPP7 was 5.17 µM; at Recombinant human FAP (setting [1]), 0.0118 µM; on recombinant human DPP9 (setting [2]) it was > 100 µM; at recombinant human DPP8 (setting [3]), 72.8 µM; on recombinant human PREP (setting [1]), 8260 nM; on DPP4 (setting [2]), > 1 µM.

`COc1cnc2cccc(N[C@H]3CCN(CC(=O)N4C[C@@H](F)C[C@H]4C#N)C3)c2c1` [Example 254, (2S,4S)-4-fluoro-1-[2-[(3S)-3-[(3-methoxy-5-quinolyl)amino]pyrrolidin-1-yl]acetyl]pyrrolidine-2-carbonitrile]: the IC50 at recombinant human DPP7 (recombinant human DPP7) was 1.4 µM; at Recombinant human FAP (setting [4]) it was 0.0021 µM; at recombinant human DPP9 (recombinant human DPP9), 13.1 µM; on recombinant human DPP8 (recombinant human DPP8), 12.2 µM; at recombinant human PREP (recombinant human PREP) it was 275 nM; on DPP4 (recombinant human DPP4), 4.71 µM.

`COc1cc2nccc(OC3CCN(CC(=O)N4C[C@@H](F)C[C@H]4C#N)CC3)c2cc1OC` [Example 130, (2S,4S)-1-(2-(4-((6,7-dimethoxyquinolin-4-yl)oxy)piperidin-1-yl)acetyl)-4-fluoropyrrolidine-2-carbonitrile]: the IC50 was 0.904 µM at recombinant human DPP7; 0.00125 µM at Recombinant human FAP (setting [1]); 5.97 µM on recombinant human DPP9 (setting [2]); 10.4 µM at recombinant human DPP8 (setting [3]); 2340 nM on recombinant human PREP (setting [1]); > 10 µM against DPP4 (setting [2]).

For the compound `N#C[C@@H]1CCCN1C(=O)CN1CC[C@H](Nc2c(F)ccc3ncccc23)C1` [Example 241, (2S)-1-[2-[(3S)-3-[(6-fluoro-5-quinolyl)amino]pyrrolidin-1-yl]acetyl]pyrrolidine-2-carbonitrile], the IC50 on recombinant human DPP7 (recombinant human DPP7) is 17 µM; on Recombinant human FAP (setting [4]) it was 0.0045 µM; on recombinant human DPP9 (recombinant human DPP9), 48 µM; at recombinant human DPP8 (recombinant human DPP8) it was 77.3 µM; on recombinant human PREP (recombinant human PREP) it was 13000 nM; on DPP4 (recombinant human DPP4) it was > 10 µM.

As for `N#C[C@@H]1CCCN1C(=O)CN1CC[C@H](Oc2ncnc3sccc23)C1` [Example 68, (S)-1-(2-((S)-3-(thieno[2,3-d]pyrimidin-4-yloxy)pyrrolidin-1-yl)acetyl)pyrrolidine-2-carbonitrile], the IC50 at recombinant human DPP7 is 3.73 µM; at Recombinant human FAP (setting [1]), 0.00796 µM; at recombinant human DPP9 (setting [2]) it was > 100 µM; at recombinant human DPP8 (setting [3]), > 100 µM; at recombinant human PREP (setting [1]), > 100000 nM; at DPP4 (setting [2]), > 1 µM.

Regarding `N#C[C@@H]1C[C@H](F)CN1C(=O)CN1CCC(Nc2ccc([N+](=O)[O-])c3cnccc23)CC1` [Example 356, (2S,4S)-4-fluoro-1-[2-[4-[(8-nitro-5-isoquinolyl)amino]-1-piperidyl]acetyl]pyrrolidine-2-carbonitrile], the 50% inhibitory concentration (IC50) at recombinant human DPP7 (recombinant human DPP7) amounted to 2.05 µM; at Recombinant human FAP (setting [4]), 0.0037 µM; on recombinant human DPP9 (recombinant human DPP9), 0.741 µM; at recombinant human DPP8 (recombinant human DPP8), 0.953 µM; on recombinant human PREP (recombinant human PREP) it was 4980 nM; at DPP4 (recombinant human DPP4) it was 4.02 µM.

The values are drawn from patent publication US11655235B2, “Pyrrolidine and piperidine compounds” (YUHAN CORPORATION, priority 2019, dated 2023).
